# Assay results published in ChEMBL document CHEMBL5329153, “Is structural hybridization invoking new dimensions for antimalarial drug discovery research?” (RSC Med Chem, 2023).
# Legend:
# Assay type in all cases: functional, organism-based
# [1] = tested on: Plasmodium falciparum; test: Antimalarial activity against chloroquine resistant Plasmodium falciparum Thai assessed as parasitic growth inhibition measured after 48 hrs
# [2] = tested on: Plasmodium falciparum; test: Antimalarial activity against chloroquine resistant Plasmodium falciparum F32 assessed as parasitic growth inhibition measured after 48 hrs; settings: F32, 48 h
# [3] = tested on: Plasmodium falciparum; test: Antimalarial activity against mefloquine resistant Plasmodium falciparum FcB1 assessed as parasitic growth inhibition measured after 48 hrs; settings: FcB1, 48 h
# [4] = tested on: Plasmodium falciparum; test: Antimalarial activity against chloroquine resistant Plasmodium falciparum FcB1 assessed as parasitic growth inhibition measured after 48 hrs; settings: FcB1, 48 h
# [5] = tested on: Plasmodium falciparum; test: Antimalarial activity against mefloquine resistant Plasmodium falciparum F32 assessed as parasitic growth inhibition measured after 48 hrs; settings: F32, 48 h
# [6] = tested on: Plasmodium falciparum; test: Antimalarial activity against mefloquine resistant Plasmodium falciparum Thai assessed as parasitic growth inhibition measured after 48 hrs
# [7] = tested on: Plasmodium falciparum; test: Antimalarial activity against chloroquine resistant Plasmodium falciparum K1 assessed as parasitic growth inhibition measured after 48 hrs; settings: K1, 48 h
# [8] = tested on: Plasmodium falciparum; test: Antimalarial activity against mefloquine resistant Plasmodium falciparum K1 assessed as parasitic growth inhibition measured after 48 hrs; settings: K1, 48 h
# [9] = tested on: Plasmodium falciparum; test: Antimalarial activity against Plasmodium falciparum male gametocytes assessed as parasitic growth inhibition by exflagellation assay
# [10] = tested on: Plasmodium falciparum; test: Antimalarial activity against Plasmodium falciparum female gametocytes assessed as parasitic growth inhibition
# [11] = tested on: Plasmodium falciparum; test: Antimalarial activity against Plasmodium falciparum male gametocytes assessed as parasitic growth inhibition
# [12] = tested on: Plasmodium falciparum; test: Antimalarial activity against Chloroquine resistant Plasmodium falciparum W2 assessed as parasitic growth inhibition measured after 48 hrs by fluorescence based assay; settings: W2, 48 h
# [13] = tested on: Plasmodium falciparum; test: Antimalarial activity against Plasmodium falciparum assessed as parasitic growth inhibition
# [14] = tested on: Plasmodium falciparum; test: Antimalarial activity against chloroquine sensitive Plasmodium falciparum 3D7 assessed as parasitic growth inhibition by SYBR Green I dye based assay
# [15] = tested on: Plasmodium falciparum; test: Antimalarial activity against Chloroquine sensitive Plasmodium falciparum 3D7 assessed as parasitic growth inhibition measured after 24 hrs; settings: 3D7, 24 h
# [16] = tested on: Plasmodium falciparum; test: Antimalarial activity against Chloroquine sensitive Plasmodium falciparum assessed as parasitic growth inhibition
# [17] = tested on: Plasmodium falciparum; test: Antimalarial activity against Chloroquine resistant Plasmodium falciparum Dd2 assessed as parasitic growth inhibition measured after 3 days by ELISA assay; settings: Dd2, 72 h
# [18] = tested on: Plasmodium falciparum; test: Antimalarial activity against Chloroquine sensitive Plasmodium falciparum 3D7 assessed as parasitic growth inhibition measured after 3 days by ELISA assay; settings: 3D7, 72 h
# [19] = tested on: Plasmodium falciparum; test: Antimalarial activity against Chloroquine-pyrimethamine sensitive Plasmodium falciparum D6 assessed as parasitic growth inhibition measured after 48 hrs; settings: D6, 48 h
# [20] = tested on: Plasmodium falciparum; test: Antimalarial activity against Chloroquine-pyrimethamine resistant Plasmodium falciparum W2 assessed as parasitic growth inhibition measured after 48 hrs; settings: W2, 48 h
# [21] = tested on: Plasmodium falciparum; test: Antimalarial activity against Chloroquine sensitive Plasmodium falciparum RKL-2 assessed as parasitic growth inhibition measured after 36 to 40 hrs by Giemsa staining based assay
# [22] = tested on: Plasmodium falciparum; test: Antimalarial activity against Chloroquine sensitive Plasmodium falciparum RKL-9 assessed as parasitic growth inhibition measured after 36 to 40 hrs by Giemsa staining based assay
# [23] = tested on: Plasmodium falciparum; test: Antimalarial activity against Chloroquine resistant Plasmodium falciparum assessed as parasitic growth inhibition by microscopic anlaysis
compound,measurement,setting,value
CC1=C(CN2CCCCC2C(O)c2cc(C(F)(F)F)nc3c(C(F)(F)F)cccc23)[C@@H]2C[C@@H](C)C[C@@H]3C[C@]4(C)CC[C@@H](O1)[C@@]32OO4 (stereo partly specified),IC50,[1],2.4 nM
same,IC50,[2],2.4 nM
same,IC50,[3],2.4 nM
same,IC50,[4],2.4 nM
same,IC50,[5],2.4 nM
same,IC50,[6],2.4 nM
same,IC50,[7],2.4 nM
same,IC50,[8],2.4 nM
C[C@@H]1CC[C@H]2[C@@H](C)C(=O)O[C@@H]3O[C@@]4(C)CC[C@@H]1[C@]32OO4 [ARTEMISININ],IC50,[9],120 nM
same,IC50,[10],300 nM
same,IC50,[11],12700 nM
O=C1c2ccc(N3CCOCC3)cc2C(=O)N1CCCCNc1ccnc2cc(Cl)ccc12,IC50,[12],49 nM
Cc1nc2ccccc2c(C)c1C(=O)NNC(=S)NC(C)(C)C,IC50,[13],0.25 µg/mL
CCCCN1C(=O)c2ccc3c4c(ccc(c24)C1=O)C(=O)C(CCNc1c2ccc(Cl)cc2nc2ccc(OC)cc12)C3=O,IC50,[14],3.89 nM
Cc1ccc(-c2nn(-c3nc4ccccc4s3)cc2/C=N\c2cccc(Cl)c2)cc1,EC50,[15],1950 nM
OC(c1cc(C(F)(F)F)nc2c(C(F)(F)F)cccc12)C1CCCCN1 (stereo unspecified) [MEFLOQUINE],IC50,[10],5600 nM
same,IC50,[11],16500 nM
CC1=C(C(=O)Nc2ccc(Br)cn2)C(c2cn(-c3ccccc3)nc2-c2ccc(F)cc2)NC(=O)N1 (stereo unspecified),IC50,[16],0.07 µg/mL
COc1cc(NC(C)CCCNC(=O)CCCC(=O)NO)c2ncccc2c1 (stereo unspecified),IC50,[17],1900 nM
same,IC50,[18],400 nM
COc1ccc2nc3cc(Cl)ccc3c(NCC3C(=O)c4ccc5c6c(ccc(c46)C3=O)C(=O)N(CN(C)C)C5=O)c2c1,IC50,[14],4.33 nM
N=C(N=C(N)N)SCCCNc1ccnc2cc(C(F)(F)F)ccc12,IC50,[19],2850 nM
same,IC50,[20],3210 nM
O=C1c2ccc(N3CCOCC3)cc2C(=O)N1CCCCCCNc1ccnc2cc(Cl)ccc12,IC50,[12],19 nM
O=C1C(O)=C(NCCNc2ccnc3cc(Cl)ccc23)C(=O)c2ccccc21,IC50,[21],391 nM
same,IC50,[22],684 nM
O=C1c2cccc(N3CCCCC3)c2C(=O)N1CCCCCCNc1ccnc2cc(Cl)ccc12,IC50,[12],75 nM
N=C(N=C(N)N)SCCCNc1ccnc2cc(Cl)ccc12,IC50,[19],1560 nM
same,IC50,[20],2310 nM
COc1cc(NC(C)CCCN)c2ncccc2c1 (stereo unspecified) [PRIMAQUINE],IC50,[17],4300 nM
same,IC50,[18],1500 nM
O=C1c2cccc(N3CCOCC3)c2C(=O)N1CCCCCCNc1ccnc2cc(Cl)ccc12,IC50,[12],25 nM
N=C(N=C(N)N)SCCNc1ccnc2cc(C(F)(F)F)ccc12,IC50,[19],1860 nM
same,IC50,[20],2950 nM
Cc1ccc(-c2nn(-c3nc4ccccc4s3)cc2/C=N\c2ccc(Cl)cc2)cc1,EC50,[15],1980 nM
Cc1nc2ccccc2c(C)c1C(=O)NNC(=S)Nc1ccc(Cl)c(Cl)c1,IC50,[13],0.19 µg/mL
N=C(N=C(N)N)SCCCCNc1ccnc2cc(C(F)(F)F)ccc12,IC50,[19],2800 nM
same,IC50,[20],6060 nM
CC1=C(C(=O)Nc2ccc(Br)cn2)C(c2cn(-c3ccccc3)nc2-c2ccc([N+](=O)[O-])cc2)NC(=O)N1 (stereo unspecified),IC50,[16],0.06 µg/mL
CCc1nc(N)nc(N)c1-c1ccc(Cl)cc1 [PYRIMETHAMINE],IC50,[16],0.25 µg/mL
CCCCNC(=S)NNC(=O)c1cc(-c2ccc(F)cc2)nc2c(Cl)cc(C(F)(F)F)cc12,IC50,[23],0.28 µg/mL
C[C@H]1C[C@@H]2C[C@@H]3CC[C@H]4OC(C(F)(F)F)=C(COCCOC(=O)CCC(=O)OC(c5cc(C(F)(F)F)nc6c(C(F)(F)F)cccc56)C5CCCCN5)[C@H](C1)[C@]24OO3 (stereo partly specified),IC50,[1],2.4 nM
same,IC50,[2],2.4 nM
same,IC50,[3],2.4 nM
same,IC50,[4],2.4 nM
same,IC50,[5],2.4 nM
same,IC50,[6],2.4 nM
same,IC50,[7],2.4 nM
same,IC50,[8],2.4 nM
Clc1ccc2c(NCCCNc3nc(Nc4ccc(N5CCOCC5)cc4)nc(Nc4ccc(N5CCOCC5)cc4)n3)ccnc2c1,IC50,[21],47.5 µg/mL
CCCN1C(=O)c2ccc3c4c(ccc(c24)C1=O)C(=O)C(CNc1c2ccc(Cl)cc2nc2ccc(OC)cc12)C3=O,IC50,[14],3.65 nM
CCCCNc1c2ccc(Cl)cc2nc2ccc(OC)cc12,IC50,[14],26.4 nM
C=C[C@H]1CN2CC[C@H]1C[C@H]2[C@H](O)c1ccnc2ccc(OC)cc12 [QUININE],IC50,[23],0.268 µg/mL
COc1cc(NC(C)CCCNC(=O)c2ccc(C(=O)NO)cc2)c2ncccc2c1 (stereo unspecified),IC50,[17],1200 nM
same,IC50,[18],600 nM
CCNC(=S)NNC(=O)c1c(C)nc2ccccc2c1C,IC50,[13],0.15 µg/mL
